Test results: patent publication US8618289B2 (Ambit Biosciences Corporation, priority 2008, dated 2013)
Where two headings read alike, the source gives them in different places.

How the values were obtained:
[1] = tested on: A375 cells; experiment: cells; conditions: Homo sapiens, A-375, read-out: A375 Viability EC50
[2] = biological target: T1, RAF kinases (Homo sapiens, UniProt P04049); experiment: biochemical
[3] = biological target: T2, RAF kinases (Homo sapiens, UniProt P15056); conditions: read-out: BRAF WT Kd; BRAF WT
T2 sequence (P15056 whole entry): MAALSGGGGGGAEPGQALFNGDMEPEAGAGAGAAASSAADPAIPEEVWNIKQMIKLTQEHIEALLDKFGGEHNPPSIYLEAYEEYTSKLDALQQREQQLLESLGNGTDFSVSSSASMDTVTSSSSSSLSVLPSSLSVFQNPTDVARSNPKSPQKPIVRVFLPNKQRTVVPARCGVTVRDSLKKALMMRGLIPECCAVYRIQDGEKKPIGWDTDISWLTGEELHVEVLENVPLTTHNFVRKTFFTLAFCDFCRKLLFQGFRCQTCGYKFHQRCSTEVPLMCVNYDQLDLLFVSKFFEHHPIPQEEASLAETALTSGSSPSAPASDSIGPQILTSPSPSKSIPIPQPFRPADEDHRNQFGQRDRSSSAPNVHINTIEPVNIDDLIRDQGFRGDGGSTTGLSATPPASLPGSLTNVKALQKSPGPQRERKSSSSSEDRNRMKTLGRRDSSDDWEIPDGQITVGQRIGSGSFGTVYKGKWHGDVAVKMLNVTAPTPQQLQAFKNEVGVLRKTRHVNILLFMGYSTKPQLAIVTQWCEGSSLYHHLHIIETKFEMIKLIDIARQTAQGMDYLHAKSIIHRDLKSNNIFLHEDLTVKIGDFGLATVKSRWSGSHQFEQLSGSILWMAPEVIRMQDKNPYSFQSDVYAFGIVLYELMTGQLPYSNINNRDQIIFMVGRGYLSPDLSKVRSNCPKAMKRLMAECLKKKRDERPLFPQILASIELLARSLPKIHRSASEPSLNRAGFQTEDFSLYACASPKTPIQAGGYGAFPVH

[4] = biological target: T3, RAF kinases (Homo sapiens, UniProt P15056, V600E); conditions: read-out: BRAF V600E Kd; BRAF V600E
T3 sequence (P15056 whole entry V600E): as the sequence (P15056 whole entry) above, with V600E counted along it

[5] = tested on: MEK1 phosphorylation in the A375 human melanoma cell line; experiment: cells; conditions: A-375, read-out: pMEK IC50
[6] = biological target: T1, RAF kinases; conditions: read-out: RAF1 Kd; RAF1
[7] = biological target: T2, RAF kinases; experiment: biochemical
[8] = biological target: T3, RAF kinases; experiment: biochemical

T1 sequence (P04049 whole entry): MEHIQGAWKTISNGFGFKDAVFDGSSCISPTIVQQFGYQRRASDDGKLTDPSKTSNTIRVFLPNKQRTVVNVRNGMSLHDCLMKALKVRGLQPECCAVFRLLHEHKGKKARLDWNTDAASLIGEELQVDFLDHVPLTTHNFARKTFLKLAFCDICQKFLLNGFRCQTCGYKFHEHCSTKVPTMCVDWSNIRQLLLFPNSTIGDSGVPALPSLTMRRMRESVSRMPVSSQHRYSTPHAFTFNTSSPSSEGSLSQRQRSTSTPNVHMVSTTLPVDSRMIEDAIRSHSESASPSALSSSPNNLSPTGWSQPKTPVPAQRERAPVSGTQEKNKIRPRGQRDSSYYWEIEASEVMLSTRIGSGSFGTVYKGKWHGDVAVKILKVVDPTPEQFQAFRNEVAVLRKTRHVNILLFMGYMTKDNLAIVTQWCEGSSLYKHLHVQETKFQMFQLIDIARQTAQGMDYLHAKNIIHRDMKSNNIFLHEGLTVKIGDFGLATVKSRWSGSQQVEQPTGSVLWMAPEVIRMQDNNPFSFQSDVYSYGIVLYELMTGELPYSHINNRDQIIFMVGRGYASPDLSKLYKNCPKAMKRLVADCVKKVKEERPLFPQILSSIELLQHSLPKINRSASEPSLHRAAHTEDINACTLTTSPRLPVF

SMILES | EC50 [1] | Kd [3] | Kd [4] | IC50 [5] | Kd [6] | Kd [7] | Kd [8] | Kd [2]
COc1cc2ncnc(Sc3cccc(NC(=O)Nc4cc(C5CCC5)nn4-c4ccccc4)c3)c2cc1OC [Ex 356, 1-(3-cyclobutyl-1-phenyl-1H-pyrazol-5-yl)-3-(3-(6,7-dimethoxyquinazolin-4-ylthio)phenyl)urea] | < 250 nM | > 1000 nM | < 250 nM | 250 to 500 nM |  |  |  | 500 to 1000 nM
COc1cc2c(Oc3cccc(NC(=O)Nc4cc(C(C)(C)F)no4)c3)ncnc2cc1OCCN1CCOCC1 [Ex 251, 1-(3-(2-fluoropropan-2-yl)isoxazol-5-yl)-3-(3-(6-methoxy-7-(2-morpholinoethoxy)quinazolin-4-yloxy)phenyl)urea] | > 1000 nM | < 250 nM | < 250 nM | 250 to 500 nM |  |  |  | 250 to 500 nM
COCCOc1cc2ncnc(Sc3cccc(NC(=O)Nc4cc(C(C)(C)C)nn4-c4ccccc4)c3)c2cc1OC [Ex 236, 1-(3-tert-butyl-1-phenyl-1H-pyrazol-5-yl)-3-(3-(6-methoxy-7-(2-methoxyethoxy)quinazolin-4-ylthio)phenyl)urea] |  | > 1000 nM | > 1000 nM | < 250 nM | > 1000 nM |  |  | 
COc1cc2ncnc(Oc3cc(NC(=O)Nc4cc(C(C)(C)C(F)(F)F)on4)ccc3F)c2cc1OC [Ex 266, 1-(3-(6,7-dimethoxyquinazolin-4-yloxy)-4-fluorophenyl)-3-(5-(1,1,1-trifluoro-2-methylpropan-2-yl)isoxazol-3-yl)urea] |  | < 250 nM | < 250 nM | < 250 nM | < 250 nM |  |  | 
COc1cc2ncnc(Oc3cccc(NC(=O)Nc4cc(C(C)(C)C(F)(F)F)on4)c3)c2cc1OC [Ex 259, 1-(3-(6,7-dimethoxyquinazolin-4-yloxy)phenyl)-3-(5-(1,1,1-trifluoro-2-methylpropan-2-yl)isoxazol-3-yl)urea] | < 250 nM |  | < 250 nM | < 250 nM | < 250 nM | < 250 nM |  | 
COc1cc2ncnc(Oc3cccc(NC(=O)Nc4cc(C(C)(C)C)nn4Cc4ccccc4)c3)c2cc1OC [Ex 357, 1-(1-benzyl-3-tert-butyl-1H-pyrazol-5-yl)-3-(3-(6,7-dimethoxyquinazolin-4-yloxy)phenyl)urea] | > 1000 nM |  | < 250 nM | 250 to 500 nM | > 1000 nM | 500 to 1000 nM |  | 
COCCOc1cc2ncnc(Oc3cccc(NC(=O)Nc4cc(C(C)(C)C)nn4-c4ccc(C)cc4)c3)c2cc1OC [Ex 276, 1-(3-tert-butyl-1-p-tolyl-1H-pyrazol-5-yl)-3-(3-(6-methoxy-7-(2-methoxyethoxy)quinazolin-4-yloxy)phenyl)urea] |  | > 1000 nM | < 250 nM | < 250 nM | > 1000 nM |  |  | 
COc1cc2ncnc(Sc3cccc(NC(=O)Nc4cc(C(C)(C)C)nn4-c4cccc(Cl)c4)c3)c2cc1OC [Ex 364, 1-(3-tert-butyl-1-(3-chlorophenyl)-1H-pyrazol-5-yl)-3-(3-(6,7-dimethoxyquinazolin-4-ylthio)phenyl)urea] |  |  | < 250 nM | < 250 nM | > 1000 nM | 500 to 1000 nM |  | 
COc1cc2ncnc(Oc3cccc(NC(=O)Nc4cc(C(C)(C)C)nn4-c4ccccc4)c3F)c2cc1OC [Ex 295, 1-(3-tert-butyl-1-phenyl-1H-pyrazol-5-yl)-3-(3-(6,7-dimethoxyquinazolin-4-yloxy)-2-fluorophenyl)urea] | > 1000 nM | > 1000 nM | < 250 nM | 500 to 1000 nM |  |  |  | 500 to 1000 nM
COc1cc2ncnc(Oc3cccc(NC(=O)Nc4cc(C(C)(C)C)nn4-c4ccccc4)c3C)c2cc1OC [Ex 289, 1-(3-tert-butyl-1-phenyl-1H-pyrazol-5-yl)-3-(3-(6,7-dimethoxyquinazolin-4-yloxy)-2-methylphenyl)urea] | 500 to 1000 nM | > 1000 nM | < 250 nM | < 250 nM |  |  |  | 500 to 1000 nM

Second part, led by results:

EC50 [1] | Kd [3] | Kd [4] | IC50 [5] | Kd [6] | Kd [7] | Kd [8] | SMILES | Kd [2]
> 1000 nM |  | < 250 nM | > 1000 nM | < 250 nM | 250 to 500 nM |  | COc1cc2ncnc(Oc3cccc(NC(=O)Nc4cc(C(F)(F)F)no4)c3)c2cc1OC [Ex 254, 1-(3-(6,7-dimethoxyquinazolin-4-yloxy)phenyl)-3-(3-(trifluoromethyl)isoxazol-5-yl)urea] | 
 | < 250 nM | < 250 nM | < 250 nM | < 250 nM |  |  | COc1cc2ncnc(Sc3cccc(NC(=O)Nc4cc(C(C)(C)C#N)no4)c3)c2cc1OC [Ex 381, 1-(3-(2-cyanopropan-2-yl)isoxazol-5-yl)-3-(3-(6,7-dimethoxyquinazolin-4-ylthio)phenyl)urea] | 
 | > 1000 nM | < 250 nM | 250 to 500 nM | > 1000 nM |  |  | COc1cc2ncnc(Sc3cccc(NC(=O)Nc4cc(C(C)(C)C)nn4Cc4ccccc4)c3)c2cc1OC [Ex 358, 1-(1-benzyl-3-tert-butyl-1H-pyrazol-5-yl)-3-(3-(6,7-dimethoxyquinazolin-4-ylthio)phenyl)urea] | 
250 to 500 nM |  | < 250 nM | < 250 nM | < 250 nM | 250 to 500 nM |  | COc1cc2ncnc(Oc3cccc(NC(=O)Nc4cc(C(C)(C)C(F)(F)F)on4)c3F)c2cc1OC [Ex 265, 1-(3-(6,7-dimethoxyquinazolin-4-yloxy)-2-fluorophenyl)-3-(5-(1,1,1-trifluoro-2-methylpropan-2-yl)isoxazol-3-yl)urea] | 
> 1000 nM |  | < 250 nM | 250 to 500 nM | < 250 nM | 250 to 500 nM |  | COCCOc1cc2ncnc(Oc3cccc(NC(=O)Nc4cc(C(C)(C)F)no4)c3)c2cc1OC [Ex 218, 1-(3-(2-fluoropropan-2-yl)isoxazol-5-yl)-3-(3-(6-methoxy-7-(2-methoxyethoxy)quinazolin-4-yloxy)phenyl)urea] | 
250 to 500 nM | > 1000 nM | < 250 nM | < 250 nM |  |  |  | COc1cc2ncnc(Oc3cc(NC(=O)Nc4cc(C(F)(F)F)nn4-c4ccccc4)ccc3F)c2cc1OC [Ex 397, 1-(3-(6,7-Dimethoxyquinazolin-4-yloxy)-4-fluorophenyl)-3-(1-phenyl-3-(trifluoromethyl)-1H-pyrazol-5-yl)urea] | 500 to 1000 nM
< 250 nM |  | < 250 nM | < 250 nM | < 250 nM | 250 to 500 nM |  | COCCOc1cc2ncnc(Oc3cccc(NC(=O)Nc4cc(C(C)(CF)CF)on4)c3)c2cc1OC [Ex 213, 1-[5-(1,3-difluoro-2-methylpropan-2-yl)isoxazol-3-yl]-3-{3-[6-methoxy-7-(2-methoxyethoxy)quinazolin-4-yloxy]phenyl}urea] | 
 | > 1000 nM | < 250 nM | < 250 nM | > 1000 nM |  |  | COc1cc2ncnc(Oc3cccc(NC(=O)Nc4cc(C(C)(C)C)nn4-c4cccc(F)c4)c3)c2cc1OC [Ex 359, 1-(3-tert-butyl-1-(3-fluorophenyl)-1H-pyrazol-5-yl)-3-(3-(6,7-dimethoxyquinazolin-4-yloxy)phenyl)urea] | 
> 1000 nM | < 250 nM | < 250 nM | < 250 nM |  |  |  | COc1cc2ncnc(Sc3cccc(NC(=O)Nc4cc(C(C)(C)F)no4)c3)c2cc1OCCCN1CCS(=O)(=O)CC1 [Ex 245, 1-(3-(2-fluoropropan-2-yl)isoxazol-5-yl)-3-(3-(7-methoxy-6-(4,4-dioxo-3-thiomorpholinopropoxy)quinazolin-4-ylthio)phenyl)urea] | 250 to 500 nM
> 1000 nM |  | < 250 nM | > 1000 nM | < 250 nM | 250 to 500 nM |  | COCCOc1cc2ncnc(Oc3cccc(NC(=O)Nc4cc(C(F)(F)F)no4)c3)c2cc1OC [Ex 229, 1-(3-(6-methoxy-7-(2-methoxyethoxy)quinazolin-4-yloxy)phenyl)-3-(3-(trifluoromethyl)isoxazol-5-yl)urea] | 
 | > 1000 nM | < 250 nM | < 250 nM | > 1000 nM |  |  | COc1cc2ncnc(Sc3cccc(NC(=O)Nc4cc(C(C)(C)C)nn4-c4ccc(C(C)(C)C)cc4)c3)c2cc1OC [Ex 370, 1-(3-tert-butyl-1-(4-tert-butylphenyl)-1H-pyrazol-5-yl)-3-(3-(6,7-dimethoxyquinazolin-4-ylthio)phenyl)urea] | 
> 1000 nM |  | < 250 nM | < 250 nM | > 1000 nM | 500 to 1000 nM |  | COc1cc2ncnc(Oc3cccc(NC(=O)Nc4cc(C(C)(C)C)nn4-c4ccc(C(C)(C)C)cc4)c3)c2cc1OC [Ex 369, 1-(3-tert-butyl-1-(4-tert-butylphenyl)-1H-pyrazol-5-yl)-3-(3-(6,7-dimethoxyquinazolin-4-yloxy)phenyl)urea] | 
> 1000 nM | > 1000 nM |  | > 1000 nM |  |  | 250 to 500 nM | COCCOc1cc2ncnc(Oc3cccc(NC(=O)Nc4ccc(C(F)(F)F)c(OC)c4)c3)c2cc1OC [Ex 223, 1-(3-methoxy-4-(trifluoromethyl)phenyl)-3-(3-(6-methoxy-7-(2-methoxyethoxy)quinazolin-4-yloxy)phenyl)urea] | 500 to 1000 nM
> 1000 nM |  | < 250 nM | 250 to 500 nM | < 250 nM | 250 to 500 nM |  | COCCOc1cc2ncnc(Sc3cccc(NC(=O)Nc4cc(C5CCCC5)on4)c3)c2cc1OC [Ex 235, 1-(5-cyclopentylisoxazol-3-yl)-3-(3-(6-methoxy-7-(2-methoxyethoxy)quinazolin-4-ylthio)phenyl)urea] | 
